# Target: T1, α-7 nicotinic ACh receptor ion channels expressed in mammalian HEK 293 cells (Rattus norvegicus, UniProt Q05941)
# T1 construct: expressed in transfected cells
# Assay: Ca2+-sensitive, fluorescence-based assay for α-7 nicotinic acetylcholine receptor channel function in mammalian cells (FLIPR)
# Assay type: cell-based
# Conditions: agonist activity, Ca2+ flux, read-out: FLIPR α7 activity rating (EC50)
# Protocol: • I) α7 Nicotinic Acetycholine Receptor Binding. Membranes were prepared for binding using HEK293 cells stably expressing the rat α7 nicotinic acetycholine receptor (rat α7 nAChR). Cells were homogenized at 4°C in hypotonic lysis buffer consisting of 10 mM Tris (pH 7.4), 5 mM EDTA and protease inhibitors and centrifuged at 32000 xg for 20 minutes. The pellet was washed once in membrane wash buffer consisting of 50 mM Tris (pH 7.4), 1 mM EDTA and protease inhibitors and centrifuged at 32000 xg for 20 minutes. This pellet was then resuspended in assay buffer consisting 50 mM KH2PO4 (pH 7.4 at 25°C), 1 mM EDTA, 0.005 % Triton-X 100 and 0.1% (v/v) Sigma Protease Inhibitor Cocktail. Aliquots were then frozen in dry ice/ethanol and kept at -80°C until the day of the assay. • II) A Ca^2+ -Sensitive, Fluorescence-Based Assay α-7 for Nicotinic Acetylcholine Receptor Channel Function In Mammalian Cells ("FLIPR"). Summary: Lead compounds are evaluated for agonist activity at α-7, α3β4, α4αβ2, and α1β1δ1ε sub-types of nicotinic ACh receptor ion channels expressed in mammalian HEK 293 cells. Agonist potency and efficacy values are determined from kinetic fluorescence Ca^2+ influx measurements made using a 384 well FLIPR (Fluorescence Image Plate Reader). […] The basal fluorescence from the cells is monitored in real time, followed by the acute addition of test compounds. […]
# T1 sequence (Q05941 23-502): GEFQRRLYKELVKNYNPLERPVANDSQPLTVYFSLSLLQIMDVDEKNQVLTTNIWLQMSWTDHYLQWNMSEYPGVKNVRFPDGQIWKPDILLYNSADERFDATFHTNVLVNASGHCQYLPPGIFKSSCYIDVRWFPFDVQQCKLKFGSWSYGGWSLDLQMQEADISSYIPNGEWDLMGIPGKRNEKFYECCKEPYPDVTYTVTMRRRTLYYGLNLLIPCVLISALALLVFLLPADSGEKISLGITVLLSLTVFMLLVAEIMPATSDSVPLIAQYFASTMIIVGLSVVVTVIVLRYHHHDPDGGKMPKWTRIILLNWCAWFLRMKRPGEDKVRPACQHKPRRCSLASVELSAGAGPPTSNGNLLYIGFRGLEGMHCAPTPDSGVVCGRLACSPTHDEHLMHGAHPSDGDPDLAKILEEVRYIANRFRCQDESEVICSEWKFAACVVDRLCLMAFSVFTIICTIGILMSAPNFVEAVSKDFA
structure (smiles),measurement,value
"c1cncc(-c2ccnc(NC3=NC[C@@]4(CN5CCC4CC5)O3)c2)c1 [Example 1, (R)-N-(3,4'-Bipyridin-2'-yl)-4H-1'-azaspiro[oxazole-5,3'-bicyclo[2.2.2]octan]-2-amine]",EC50,< 100 nM
